In patent US20260306631A1, “CHIMERIC RECEPTORS” (St. Jude Children's Research Hospital, Inc., priority 2023, published 2026):

Tests used:
[1] = tested on: Jun.EpoR.del5 (ZipEpoR.del5: cJunzip.hEpoRmut.del5, cJun SEQ ID NO: 9, hEpoRmut SEQ ID NO: 18; 5 amino acid TM domain deletion); experiment: Frequency of pSTAT5+ cells after ruxolitinib treatment, T cells expressing Jun.EpoR.del5 ZipR; format: cell-based; settings: role: inhibitor; STAT5 phosphorylation (pSTAT5+ cells), human T cells, 48-hour treatment
From the text: (§1) FIGS. 2A-2F show Jun leucine zipper-based homodimers activating STAT5 resulting in improved T cell viability, and that they are inhibited by ruxolitinib. (FIGS. 2A and 2B) pSTAT5 geometric mean fluorescence intensity (FIG. 2A) or percent positive (FIG. 2B) in Jun ZipR+ cells (N=4 biological replicates, One-way ANOVA, ** p<0.01, *** p<0.001, **** p<0.0001). (FIGS. 2C-2E) Frequency of pSTAT5+ cells following 48-hour treatment with indicated concentrations of ruxolitinib in vitro (N=3 biological replicates). (FIG. 2F) Frequency of dead cells (Annexin V+ Dead+), apoptotic cells (Annexin V+ Dead-), necrotic cells (Annexin V− Dead+), and live cells (Annexin V− Dead-) after 7 days of cytokine starvation without or with treatment of 5 M ruxolitinib in vitro (N=2 biological replicates, two-way ANOVA, **** p<0.0001 on Live cell population)
(§2) The following constructs were generated and tested: • i) Jun.IL-2Rβ chain constructs with 0 to 6 alanine insertions to interrogate all potential intracellular orientations; • ii) Jun.EpoR constructs with 0, 1, 3, or 5 amino acid TM domain deletions to interrogate receptors with 0, 100, 300, or 500 degrees of rotation; • iii) Jun. GHR; and • iv) Jun. 18B.MyD88 fused to EpoR or GHR (Jun.MyD88.EpoR or Jun.MyD88.GHR).
(§3) As a potential safety switch for the constitutively active homodimeric ZipRs, T cells expressing Jun.EpoR ZipRs or the Jun. […]

[2] = tested on: Jun.EpoR ZipRs or the Jun.GHR ZipRs; experiment: Ability of ZipRs to phosphorylate STAT5 under ruxolitinib treatment, T cells expressing Jun.EpoR ZipRs or Jun.GHR ZipR; format: cell-based, human; settings: role: inhibitor; increasing concentrations of ruxolitinib
From the text: as §1
(§4) As a potential safety switch for the constitutively active homodimeric ZipRs, T cells expressing Jun.EpoR ZipRs or the Jun. GHR ZipRs were treated with increasing concentrations of ruxolitinib, an FDA-approved JAK1/2 inhibitor. All ZipRs were inhibited by ruxolitinib (FIGS. 2C-2E) as judged by their ability to phosphorylate STAT5.
(§5) Generation of ZipR transduced T cells. […]

[3] = tested on: Jun.EpoR.del1 (ZipEpoR.del1: cJunzip.hEpoRmut.del1, cJun SEQ ID NO: 9, hEpoRmut SEQ ID NO: 14; 1 amino acid TM domain deletion); experiment: Frequency of pSTAT5+ cells after ruxolitinib treatment, T cells expressing Jun.EpoR.del1 ZipR; format: cell-based; settings: role: inhibitor; STAT5 phosphorylation (pSTAT5+ cells), human T cells, 48-hour treatment
From the text: as §1, §2, §3

[4] = tested on: Jun.GHR (ZipGHR: cJunzip.hGHR, cJun SEQ ID NO: 9, hGHR SEQ ID NO: 20); experiment: Frequency of pSTAT5+ cells after ruxolitinib treatment, T cells expressing Jun.GHR ZipR; format: cell-based; settings: role: inhibitor; STAT5 phosphorylation (pSTAT5+ cells), human T cells, 48-hour treatment
From the text: as §1, §4, §5

[5] = tested on: Jun.EpoR (ZipEpoR: cJunzip.hEpoRmut, cJun SEQ ID NO: 9, hEpoRmut SEQ ID NO: 10); experiment: Frequency of pSTAT5+ cells after ruxolitinib treatment, T cells expressing Jun.EpoR ZipR; format: cell-based; settings: role: inhibitor; STAT5 phosphorylation (pSTAT5+ cells), human T cells, 48-hour treatment
From the text: as §1, §4, §5

[6] = tested on: Jun.EpoR.del3 (ZipEpoR.del3: cJunzip.hEpoRmut.del3, cJun SEQ ID NO: 9, hEpoRmut SEQ ID NO: 16; 3 amino acid TM domain deletion); experiment: Frequency of pSTAT5+ cells after ruxolitinib treatment, T cells expressing Jun.EpoR.del3 ZipR; format: cell-based; settings: role: inhibitor; STAT5 phosphorylation (pSTAT5+ cells), human T cells, 48-hour treatment
From the text: as §1, §2, §3

[7] = tested on: Jun.EpoR- or Jun.GHR ZipRs expressing human T cells; experiment: T cell survival after 7-day cytokine starvation with concurrent ruxolitinib treatment; format: cell-based; settings: role: inhibitor, 7 days without cytokines, printed as 5 M in FIG. 2F legend
From the text: as §1
In addition to activation of STAT5, the ability for Jun ZipRs to improve T cell function was determined. Jun.EpoR- or Jun.GHR ZipRs expressing human T cells were cultured without cytokines for 7 days in vitro before quantifying the frequency of live, dead, and dying cells. ZipR signaling allowed cells to survive 7-day cytokine starvation, which was abrogated by concurrent treatment with ruxolitinib (FIG. 2F). […]
Cytokine starvation. […] To quantify apoptosis, cells were labeled with annexin V (BD Biosciences) and eBioscience Fixable viability dye (Invitrogen).

- EC50 [1]: 94.2 nM
- EC50 [3]: 483 nM
- EC50 [4]: 6.3 nM
- EC50 [5]: 668 nM
- EC50 [6]: 57.2 nM
Structure (SMILES): N#CC[C@H](C1CCCC1)n1cc(-c2ncnc3[nH]ccc23)cn1 [Ruxolitinib, ruxolitinib]
- inhibition of ZipRs as judged by their ability to phosphorylate STAT5 [2]: inhibited
- survival of 7-day cytokine starvation by ZipR signaling [7]: abrogated
